Measurements taken from ChEMBL document CHEMBL6083213, “Discovery of benzimidazole-2-amide BNZ-111 as new tubulin inhibitor” (Bioorg Med Chem Lett, 2024).
Converted amounts (≈) assume the structure as drawn. The source made the active and inactive calls. The rule behind the calls is not given here.

Assays:
NCI-H460 [1] = assay: Anticancer activity against human NCI-H460 cells assessed as inhibition of cell growth at 1 uM incubated for 72 hrs by MTT assay relative to control; type: functional
NCI-H1299 [2] = assay: Anticancer activity against human NCI-H1299 cells assessed as inhibition of cell growth at 1 uM incubated for 72 hrs by MTT assay relative to control; type: functional
A549 [3] = assay: Anticancer activity against human A549 cells assessed as inhibition of cell growth at 1 uM incubated for 72 hrs by MTT assay relative to control; type: functional
[4] = Clearance in Sprague-Dawley rat at 2 mg/kg, iv; type: ADME, organism-based; conditions: in vivo
[5] = Half life in Sprague-Dawley rat at 2 mg/kg, iv; type: ADME, organism-based; conditions: in vivo
[6] = AUC in Sprague-Dawley rat at 10 mg/kg, po; type: ADME, organism-based; conditions: in vivo
[7] = Oral bioavailability in Sprague-Dawley rat at 10 mg/kg; type: ADME, organism-based; conditions: in vivo
[8] = Volume of distribution at steady state in Sprague-Dawley rat at 2 mg/kg, iv; type: ADME, organism-based; conditions: in vivo, read-out: Vdss
[9] = Cmax in Sprague-Dawley rat at 10 mg/kg, po; type: ADME, organism-based; conditions: in vivo
[10] = Cytotoxicity against human HeyA8-MDR cells incubated for 24 hrs; type: toxicity, cell-based
Vero = assay: Cytotoxicity against african green monkey Vero cells incubated for 24 hrs; type: toxicity, cell-based; conditions: chlorocebus sabaeus
[11] = Cytotoxicity against human SKOV3/TR cells incubated for 24 hrs; type: toxicity, cell-based
L929 = assay: Cytotoxicity against mouse L929 cells incubated for 24 hrs; type: toxicity, cell-based; conditions: l929, 24 h
NIH3T3 = assay: Cytotoxicity against mouse NIH3T3 cells incubated for 24 hrs; type: toxicity, cell-based; conditions: nih3t3, 24 h
HFL1 = assay: Cytotoxicity against human HFL1 cells incubated for 24 hrs; type: toxicity, cell-based; conditions: hfl1, 24 h
[12] = Plasma protein binding in human; type: ADME, cell-free; conditions: read-out: PPB (converted)
HeyA8-MDR = assay: Antitumor activity against human HeyA8-MDR cells xenografted in mouse assessed as tumor growth inhibition; type: functional, cell-based
HEY A8 = assay: Anticancer activity against human HEY A8 cells incubated for 24; type: functional, cell-based
[13] = Stability in rat plasma assessed as parent compound remaining after 4 hrs; type: ADME, cell-free; conditions: read-out: Stability
[14] = Microsomal stability in rat liver microsomes assessed as parent compound remaining measured after 30 mins; type: ADME, Microsome; conditions: read-out: Stability
NCI-H1299 [15] = assay: Anticancer activity against human NCI-H1299 cells incubated for 24; type: functional, cell-based
[16] = Cytotoxicity against human A2780/CP20 cells incubated for 24 hrs; type: toxicity, cell-based; conditions: a2780/cp20, 24 h
[17] = Microsomal stability in human liver microsomes assessed as parent compound remaining measured after 30 mins; type: ADME, Microsome; conditions: read-out: Stability
NCI-H460 [18] = assay: Anticancer activity against human NCI-H460 cells incubated for 24; type: functional, cell-based
[19] = Solubility of compound in 1 % DMSO-PBS buffer; type: physicochemical
[20] = Plasma protein binding in mouse; type: ADME, cell-free; conditions: read-out: PPB (converted)
[21] = Stability in human plasma assessed as parent compound remaining after 4 hrs; type: ADME, cell-free; conditions: read-out: Stability
[22] = Cytotoxicity against human SKOV3.ip1 cells incubated for 24 hrs; type: toxicity, cell-based; conditions: skov3.ip1, 24 h
hERG (KCNH2) = hERG (KCNH2) (Homo sapiens, UniProt Q12809); assay: Inhibition of hERG at 10 uM relative to control; type: toxicity
Chain of hERG (KCNH2) (Q12809 whole entry): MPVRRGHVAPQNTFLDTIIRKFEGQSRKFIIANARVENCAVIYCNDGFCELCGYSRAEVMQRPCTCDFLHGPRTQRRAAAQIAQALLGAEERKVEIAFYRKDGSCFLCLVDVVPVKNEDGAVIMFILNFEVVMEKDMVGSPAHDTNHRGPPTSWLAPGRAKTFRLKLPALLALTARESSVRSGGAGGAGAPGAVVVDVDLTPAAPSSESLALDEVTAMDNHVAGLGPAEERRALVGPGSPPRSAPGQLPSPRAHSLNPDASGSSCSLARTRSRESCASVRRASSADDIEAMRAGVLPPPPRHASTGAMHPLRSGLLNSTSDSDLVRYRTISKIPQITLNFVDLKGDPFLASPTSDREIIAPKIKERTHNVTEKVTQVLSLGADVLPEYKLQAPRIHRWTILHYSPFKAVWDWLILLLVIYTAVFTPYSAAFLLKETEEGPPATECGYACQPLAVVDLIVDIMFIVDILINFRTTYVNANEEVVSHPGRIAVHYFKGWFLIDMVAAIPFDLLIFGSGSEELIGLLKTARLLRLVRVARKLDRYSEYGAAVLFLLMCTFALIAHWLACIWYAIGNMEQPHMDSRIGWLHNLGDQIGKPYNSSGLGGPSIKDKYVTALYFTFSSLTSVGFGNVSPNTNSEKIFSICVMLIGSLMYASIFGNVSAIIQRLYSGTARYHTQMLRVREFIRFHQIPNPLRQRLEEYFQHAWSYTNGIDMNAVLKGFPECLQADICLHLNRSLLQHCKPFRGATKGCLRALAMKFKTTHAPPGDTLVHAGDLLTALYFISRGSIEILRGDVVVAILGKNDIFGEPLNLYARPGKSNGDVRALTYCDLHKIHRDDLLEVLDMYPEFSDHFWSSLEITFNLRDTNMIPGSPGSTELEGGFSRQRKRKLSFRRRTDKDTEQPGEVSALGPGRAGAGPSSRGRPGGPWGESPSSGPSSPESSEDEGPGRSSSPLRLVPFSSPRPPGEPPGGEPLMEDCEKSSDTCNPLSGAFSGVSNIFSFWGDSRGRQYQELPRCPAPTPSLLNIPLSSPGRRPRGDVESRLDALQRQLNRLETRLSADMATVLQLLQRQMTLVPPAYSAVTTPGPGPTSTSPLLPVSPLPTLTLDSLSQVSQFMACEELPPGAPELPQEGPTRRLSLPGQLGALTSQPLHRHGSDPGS

[23] = Stability in mouse plasma assessed as parent compound remaining after 4 hrs; type: ADME, cell-free; conditions: read-out: Stability
A2780 = assay: Anticancer activity against human A2780 cells incubated for 24; type: functional, cell-based
CHO-K1 = assay: Cytotoxicity against CHO-K1 cells incubated for 24 hrs; type: toxicity, cell-based, Cricetulus griseus; conditions: chinese hamster, cho-k1, 24 h
[24] = Microsomal stability in mouse liver microsomes assessed as parent compound remaining measured after 30 mins; type: ADME, Microsome; conditions: read-out: Stability
A549 [25] = assay: Anticancer activity against human A549 cells incubated for 24; type: functional, cell-based

Compound: CCCOc1ccc2nc(N(C)C(=O)OC)[nH]c2c1
- inhibition at 1 µM (NCI-H460 [1]): 8%
- inhibition at 1 µM (NCI-H1299 [2]): 22%
- inhibition at 1 µM (A549 [3]): 0%

Compound: COC(=O)Nc1nc2cc(Sc3ccccc3)ccc2[nH]1 [FENBENDAZOLE]
- inhibition at 1 µM (NCI-H460 [1]): 43%
- inhibition at 1 µM (NCI-H1299 [2]): 59%
- inhibition at 1 µM (A549 [3]): 44%

Compound: COC(=O)Nc1nc2cc(C(=O)c3ccccc3)ccc2[nH]1 [MEBENDAZOLE]
- inhibition at 1 µM (NCI-H460 [1]): 46%
- inhibition at 1 µM (NCI-H1299 [2]): 52%
- inhibition at 1 µM (A549 [3]): 48%

Compound: CCCOc1cc2[nH]c(NC(=O)CC)nc2cc1C
- inhibition at 1 µM (NCI-H460 [1]): 40%
- inhibition at 1 µM (NCI-H1299 [2]): 26%
- inhibition at 1 µM (A549 [3]): 34%

Compound: CCCOc1ccc2nc(NC(=O)CC)[nH]c2c1
- clearance [4]: 45.5 mL/min/kg
- half-life [5]: 18.6 h
- AUC [6]: 930 ng·h/mL
- bioavailability [7]: 25%
- inhibition at 1 µM (NCI-H460 [1]): 46%
- Vd [8]: 6.4 L/kg
- inhibition at 1 µM (NCI-H1299 [2]): 64%
- Cmax [9]: 1560 ng/mL
- inhibition at 1 µM (A549 [3]): 58%

Compound: COC(=O)Nc1nc2ccc(OCCC(F)(F)F)cc2[nH]1
- inhibition at 1 µM (NCI-H460 [1]): 17%
- inhibition at 1 µM (NCI-H1299 [2]): 24%
- inhibition at 1 µM (A549 [3]): 18%

Compound: CCOc1ccc2nc(NC(=O)OC)[nH]c2c1
- inhibition at 1 µM (NCI-H460 [1]): 27%
- inhibition at 1 µM (NCI-H1299 [2]): 23%
- inhibition at 1 µM (A549 [3]): 25%

Compound: CCCCOc1ccc2nc(NC(=O)OC)[nH]c2c1
- inhibition at 1 µM (NCI-H460 [1]): 31%
- inhibition at 1 µM (NCI-H1299 [2]): 39%
- inhibition at 1 µM (A549 [3]): 30%

Compound: CCCOc1cc2[nH]c(NC(=O)CC)nc2cc1OC
- inhibition at 1 µM (NCI-H460 [1]): 14%
- inhibition at 1 µM (NCI-H1299 [2]): 11%
- inhibition at 1 µM (A549 [3]): 10%

Compound: CCCOc1ccc2nc(NC(=O)OC)[nH]c2c1 [OXIBENDAZOLE]
- clearance [4]: 350 mL/min/kg
- half-life [5]: 27 h
- AUC [6]: 10 ng·h/mL
- bioavailability [7]: 2.6%
- inhibition at 1 µM (NCI-H460 [1]): 47%
- Vd [8]: 413 L/kg
- inhibition at 1 µM (NCI-H1299 [2]): 65%
- Cmax [9]: 10 ng/mL
- inhibition at 1 µM (A549 [3]): 58%

Compound: CCCOc1ccc2nc(NC(=O)NC)[nH]c2c1
- clearance [4]: 132 mL/min/kg
- half-life [5]: 0.25 h
- AUC [6]: 590 ng·h/mL
- bioavailability [7]: 44%
- inhibition at 1 µM (NCI-H460 [1]): 54%
- Vd [8]: 2.8 L/kg
- inhibition at 1 µM (NCI-H1299 [2]): 65%
- Cmax [9]: 580 ng/mL
- inhibition at 1 µM (A549 [3]): 59%

Compound: CC(=O)O[C@H]1C(=O)[C@@]2(C)[C@H]([C@H](OC(=O)c3ccccc3)[C@]3(O)C[C@H](OC(=O)[C@H](O)[C@@H](NC(=O)c4ccccc4)c4ccccc4)C(C)=C1C3(C)C)[C@]1(OC(C)=O)CO[C@@H]1C[C@@H]2O [PACLITAXEL]
- inhibition at 1 µM (NCI-H460 [1]): 63%
- inhibition at 1 µM (NCI-H1299 [2]): 73%
- inhibition at 1 µM (A549 [3]): 74%

Compound: CCCCc1ccc2[nH]c(NC(=O)OC)nc2c1 [PARBENDAZOLE]
- inhibition at 1 µM (NCI-H460 [1]): 27%
- inhibition at 1 µM (NCI-H1299 [2]): 37%
- inhibition at 1 µM (A549 [3]): 47%

Compound: CCCOc1ccc2nc(NS(=O)(=O)CC)[nH]c2c1
- inhibition at 1 µM (NCI-H460 [1]): 6%
- inhibition at 1 µM (NCI-H1299 [2]): 9%
- inhibition at 1 µM (A549 [3]): 4%

Compound: COC(=O)Nc1nc2ccc(OCCCF)cc2[nH]1
- inhibition at 1 µM (NCI-H460 [1]): 20%
- inhibition at 1 µM (NCI-H1299 [2]): 25%
- inhibition at 1 µM (A549 [3]): 28%

Compound: CCCOc1cc2[nH]c(NC(=O)CC)nc2cc1F
- clearance [4]: 38.5 mL/min/kg
- Activity [10]: Non-toxic
- Activity (Vero): Non-toxic
- Activity [11]: Non-toxic
- Activity (L929): Non-toxic
- half-life [5]: 0.3 h
- AUC [6]: 2140 ng·h/mL
- Activity (NIH3T3): Non-toxic
- Activity (HFL1): Non-toxic
- bioavailability [7]: 50%
- fraction unbound [12]: 0.17
- TGI (HeyA8-MDR): Active
- Activity (HEY A8): Active
- inhibition at 1 µM (NCI-H460 [1]): 63%
- remaining at 4 h [13]: 95%
- remaining at 0.5 h [14]: 20%
- Activity (NCI-H1299 [15]): Active
- Vd [8]: 0.6 L/kg
- Activity [16]: Non-toxic
- remaining at 0.5 h [17]: 29%
- Activity (NCI-H460 [18]): Active
- solubility [19]: 53 µM (≈ 14.1 µg/mL)
- fraction unbound [20]: 0.15
- remaining at 4 h [21]: > 99%
- Activity [22]: Non-toxic
- inhibition at 10 µM (hERG (KCNH2)): 29%
- inhibition at 1 µM (NCI-H1299 [2]): 62%
- remaining at 4 h [23]: 95%
- Activity (A2780): Active
- Activity (CHO-K1): Non-toxic
- remaining at 0.5 h [24]: 2.6%
- Cmax [9]: 2760 ng/mL
- inhibition at 1 µM (A549 [3]): 64%
- Activity (A549 [25]): Active

Compound: CCCOc1ccc2nc(NC(=O)OC)n(C)c2c1
- inhibition at 1 µM (NCI-H460 [1]): 10%
- inhibition at 1 µM (NCI-H1299 [2]): 19%
- inhibition at 1 µM (A549 [3]): 10%

Compound: CCCOc1ccc2c(c1)nc(NC(=O)OC)n2C
- inhibition at 1 µM (NCI-H460 [1]): 10%
- inhibition at 1 µM (NCI-H1299 [2]): 31%
- inhibition at 1 µM (A549 [3]): 23%

Compound: CCCOc1ccc2nc(N)[nH]c2c1
- inhibition at 1 µM (NCI-H460 [1]): 13%
- inhibition at 1 µM (NCI-H1299 [2]): 24%
- inhibition at 1 µM (A549 [3]): 8%

Compound: CCCOc1cc2[nH]c(NC(=O)CC)nc2cc1Cl
- inhibition at 1 µM (NCI-H460 [1]): 60%
- inhibition at 1 µM (NCI-H1299 [2]): 55%
- inhibition at 1 µM (A549 [3]): 58%
